Results from US8933017B2, “CD44V6 peptides as inhibitors of bacterial infections” (Karlsruher Institut fur Technologie, priority 2009, dated 2015).

Experiments:
c-Met [1] = test: InIB-induced c-Met phosphorylation in ASs6 cells; type: cell-based, rat; conditions: peptide 100 ng/ml before InIB
Method: (§1) AS cells or ASs6 cells were induced with InIB as indicated (A) and ASs6 cells in addition with a CD44v6 14-mer peptide having SEQ ID NO: 1 or an unrelated (control) peptide (B). Erk phosphorylation (A,B) or c-Met phosphorylation (B) was determined. In (C), HeLa cells were induced either with HGF or InIB for 5 min at 37° C. CD44v6 was immunoprecipitated from the lysates and a Western Blot was performed using CD44v6 and c-Met antibodies as indicated. For control, an IgG antibody was used. The numbers reflect-fold induction as determined by densitometric scanning (Image J program).
(§2) The human colon adenocarcinoma cell lines HT29 and the human cervix carcinoma cell line HeLa (American tissue culture collection, ATCC; Wesel, Germany. Accession no: CCL-2) were grown in Dulbecco's modified Eagle's medium (DMEM; Invitrogen, Karlsruhe, Germany) supplemented with 10% fetal calf serum (FCS; PAA Cölbe, Germany). The rat pancreatic carcinoma cell line BSp73AS and its transfectant BSp73ASs6 were grown in RMPI (Invitrogen, Karlsruhe, Germany) plus 10% FCS.
(§3) In all experiments cells were induced with 1 nM of InIB where indicated. Induction was performed for 5 min at 37° C. Blocking experiments were performed by incubating the CD44v6 14-mer peptide having for example SEQ ID NO: 2 or SEQ ID NO: 1 (100 ng/ml) or the control peptide (100 ng/ml) for 30 min at 37° C. prior to induction with InIB. […]

Erk [2] = test: InIB-induced Erk phosphorylation in ASs6 cells; type: cell-based, rat; conditions: peptide 100 ng/ml before InIB
Method: as §1, §2, §3

Erk [3] = test: InIB-induced Erk phosphorylation in HeLa and HT29 cells; type: cell-based, human; conditions: peptide 100 ng/ml 30 min before InIB 1 nM 5 min
Method: (§4) HeLa cells were induced with InIB (A) at a concentration of 1 nM for 5 min at 37° C. Pretreatment with a control peptide or a CD44v6 14-mer peptide having SEQ ID NO: 2 at a concentration of 100 ng/ml for 30 min was performed when indicated. Phosphorylation of c-Met and of Erk were measured as described in experimental procedures. The same experiments were performed with the HT29 cells (B). (C) HeLa cells were transfected with two different siRNA (v6-1 and v6-2, described in experimental procedures) to downregulate CD44v6 and with a control siRNA. 48 h after transfection, cells were starved for additional 24 h. InIB-induced c-Met and Erk phosphorylation were measured. The expression of CD44v6 was detected by Western Blot analysis. The numbers reflect-fold induction as determined by densitometric scanning (Image J program).
as §2
(§5) In all experiments cells were induced with 1 nM of InIB where indicated. […]

HeLa cells = test: Latex bead invasion assay (InIB-coated beads); type: cell-based, human; conditions: HeLa cells preincubated with peptide
Method: Control beads or beads coated with InIB (see experimental procedures) were incubated with HeLa cells. Cells were pretreated with a CD44v6 peptide having SEQ ID NO: 2 or a control peptide for one hour as indicated. Extracellular beads bind to a Cy3-labelled antibody and are stained red in immunofluorescence microscopy. In phase contrast microscopy both extracellular and intracellular beads are detected. The number of internalized beads (black) was counted in approximately a thousand cells and shown as intracellular beads/100 cells in the graph. The results are expressed as means±standard deviation of three independent experiments.
In1B-dependent c-Met and Erk phosphorylation was measured in HeLa cells transiently transfected with a control vector or a vector coding for a truncated version of ezrin deprived of the actin binding domain (ezΔABD or DN Ezrin). In these cells also the uptake of latex beads was determined as described in FIG. 4.
Coating of the beads with InIB was performed as is known in the art. Briefly, 25 μl of latex beads (4×10^8 beads/ml, Dynabeads M-450, Dynal, Invitrogen, Karlsruhe, Germany) were coated with goat anti-mouse IgG and then incubated with 0.5 ml of hybridoma cell supernatant of monoclonal anti-InIB antibody for 2 h at 4° C. […]

HT29 cells = test: Scattering assay (InIB-induced); type: cell-based, human; conditions: InIB 1 nM 48 h, antibody 100 μg/ml or peptide 100 ng/ml
Method: Scattering of HT29 cells was determined after treatment with InIB alone or together with a control peptide or a CD44v6 peptide or antibody as indicated. The magnification used was ×20.
HT29 cells were seeded at a concentration of 3×10^5 cells/well in a 6-well plate. They were then incubated with InIB (1 nM) for 48 h at 37° C. For the blocking experiments, CD44 anti-v6 antibodies (Biwa; 100 μg/ml) or a CD44v6 peptide (100 ng/ml) were added before addition of InIB. Pictures were taken using a phase contrast microscope 48 h after induction.

c-Met [4] = test: InIB-induced c-Met phosphorylation in HeLa and HT29 cells; type: cell-based, human; conditions: peptide 100 ng/ml 30 min before InIB 1 nM 5 min
Method: as §4, §2, §5

Substance	InIB-induced c-Met phosphorylation (c-Met [1])	InIB-induced Erk phosphorylation (Erk [2])	downstream signaling monitored by Erk activation (Erk [3])	entry of InIB-coated beads (HeLa cells)	entry of InIB-coated beads blocked (HeLa cells) [%]	InIB-induced scattering (HT29 cells)	InIB-induced activation of c-Met (c-Met [4])
CD44v6 peptide having SEQ ID NO:1: CD44v6 14-mer peptide having SEQ ID NO: 1, used on rat ASs6 cells (KEKWFENEWQGKNP; listed as Rattus norvegicus)	abrogated	abrogated	–	–	–	–	–
KEQWFGNRWHEGYR (listed as Homo sapiens) [human CD44v6 14-mer peptide]	–	–	inhibited	drastic decrease	~100	blocked	completely abrogated
